In ChEMBL document CHEMBL2074572, “Limited distribution of new quinolone antibacterial agents into brain caused by multiple efflux transporters at the blood-brain barrier” (J Pharmacol Exp Ther, 2000):

Experiments:
[1] = biological target: Multidrug resistance-associated protein 1 (Homo sapiens, UniProt P33527); assay: TP_TRANSPORTER: decrease in intracellular accumulation in HL60 and HL60/ADM cells; type: functional, cell-based
[2] = biological target: P-glycoprotein 1 and 3 (MDR1a/MDR1b) (Mus musculus, UniProt P21447+P06795); assay: TP_TRANSPORTER: increase in brain concentration in mdr1a/1b(-/-) mouse; type: functional, organism-based; settings: in vivo

Multidrug resistance-associated protein 1, sequence (P33527 whole entry): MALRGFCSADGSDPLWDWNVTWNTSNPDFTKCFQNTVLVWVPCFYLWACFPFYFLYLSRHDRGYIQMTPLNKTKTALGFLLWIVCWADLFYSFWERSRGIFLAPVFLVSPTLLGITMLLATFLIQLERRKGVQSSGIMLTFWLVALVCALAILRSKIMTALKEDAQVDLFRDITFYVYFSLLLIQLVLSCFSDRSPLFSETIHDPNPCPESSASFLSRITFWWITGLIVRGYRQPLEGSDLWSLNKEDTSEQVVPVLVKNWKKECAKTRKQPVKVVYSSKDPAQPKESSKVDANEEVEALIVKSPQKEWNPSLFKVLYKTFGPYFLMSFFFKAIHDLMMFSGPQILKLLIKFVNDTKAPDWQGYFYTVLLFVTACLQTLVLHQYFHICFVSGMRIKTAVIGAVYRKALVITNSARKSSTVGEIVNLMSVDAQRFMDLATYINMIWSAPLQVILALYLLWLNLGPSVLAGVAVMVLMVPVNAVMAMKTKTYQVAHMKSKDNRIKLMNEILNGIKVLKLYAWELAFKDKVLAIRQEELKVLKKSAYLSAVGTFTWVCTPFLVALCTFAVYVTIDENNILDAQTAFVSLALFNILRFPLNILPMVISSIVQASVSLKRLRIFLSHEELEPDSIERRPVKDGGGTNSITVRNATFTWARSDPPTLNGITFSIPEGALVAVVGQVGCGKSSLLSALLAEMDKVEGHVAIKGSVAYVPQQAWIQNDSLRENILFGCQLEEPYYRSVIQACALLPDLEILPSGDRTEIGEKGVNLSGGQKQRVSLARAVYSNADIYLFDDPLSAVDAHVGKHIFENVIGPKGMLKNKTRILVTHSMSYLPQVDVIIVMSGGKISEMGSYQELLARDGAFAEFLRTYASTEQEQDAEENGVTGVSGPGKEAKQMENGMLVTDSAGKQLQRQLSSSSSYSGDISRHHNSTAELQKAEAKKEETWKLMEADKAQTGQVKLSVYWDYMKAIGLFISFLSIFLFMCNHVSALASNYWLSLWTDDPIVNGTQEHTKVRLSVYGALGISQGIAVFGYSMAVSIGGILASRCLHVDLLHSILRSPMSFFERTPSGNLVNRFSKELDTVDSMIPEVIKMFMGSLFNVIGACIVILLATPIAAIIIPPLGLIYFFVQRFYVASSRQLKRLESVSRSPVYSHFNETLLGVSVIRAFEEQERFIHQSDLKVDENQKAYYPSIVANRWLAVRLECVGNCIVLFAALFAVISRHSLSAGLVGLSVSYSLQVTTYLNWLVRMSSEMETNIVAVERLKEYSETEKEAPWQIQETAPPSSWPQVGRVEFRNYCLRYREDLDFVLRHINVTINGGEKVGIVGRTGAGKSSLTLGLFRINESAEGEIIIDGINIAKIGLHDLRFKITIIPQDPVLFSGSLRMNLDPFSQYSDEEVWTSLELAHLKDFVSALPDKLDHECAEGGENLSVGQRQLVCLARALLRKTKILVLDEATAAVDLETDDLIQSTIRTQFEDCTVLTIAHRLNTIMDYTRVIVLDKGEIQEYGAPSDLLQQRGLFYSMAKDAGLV

| Activity [1] | Activity [2] | SMILES |
| --- | --- | --- |
| substrate [+] | – | Cc1c(F)c(N2CCNC(C)C2)cc2c1c(=O)c(C(=O)O)cn2C1CC1 (configuration not stated) [GREPAFLOXACIN] |
| – | substrate [+] | C[C@@H]1CN(c2c(F)c(N)c3c(=O)c(C(=O)O)cn(C4CC4)c3c2F)C[C@H](C)N1 [SPARFLOXACIN] |
